Reference: article PMC6438731, “Extrasynaptic δ‐GABAA receptors are high‐affinity muscimol receptors” (Journal of Neurochemistry, 2019)
Values joined by “and” are separate entries in the source; they are usually repeats but may differ in a detail not shown here. Identical values can stand only once.

Key:
[1] = biological target: native δ‐GABAARs in the cerebellum (WT‐δKO, α6βδ) (Mus musculus, UniProt P16305+P63137); experiment: [^3H]muscimol binding kinetics, cerebellum WT‐δKO (subtracted); details: 22°C
Procedure: (§1) WT and δKO forebrain and cerebellar membranes were prepared using a modification of the method of Squires and Saederup (2000) essentially as described by Uusi‐Oukari et al. (2014). […] forebrain along with midbrain region was homogenized into 10 mM Tris‐HCl, pH 8.0 buffer containing 2 mM EDTA, using an Ultra‐Turrax T25 (Janke & Kunkel IKA labortechnik) for 20 s at 9500 rpm. The homogenates were centrifuged at 20 000 g for 10 min at +4°C and the resulting pellets were washed three times by resuspension and re‐centrifugation with 10 mM Tris‐HCl, pH 8.5 buffer containing 0.2 M NaCl, and 5 mM EDTA. The resulting pellets were then suspended in ice‐cold H2O and centrifuged. The pellets were again washed three times with Tris, pH 8.5/NaCl/EDTA as described above. The resulting pellets were finally suspended in assay buffer consisting of 50 mM Tris‐base, pH adjusted to 7.4 with citric acid, and frozen at −70°C. Before a binding experiment, the suspension was thawed, centrifuged, and suspended in assay buffer.
The binding of [^3H]muscimol (5 nM) was measured in assay buffer at 22°C in a total volume of 300 μL. Triplicate technical replicates of mouse forebrain (190–215 μg protein), cerebellar (180–210 μg protein) or HEK cell (92–132 μg protein) membranes for each time point were incubated with shaking for various times (15 s–15 min) to measure association of the binding. […] Air‐dried filters were immersed in 3 mL of Optiphase HiSafe 3 scintillation fluid (Wallac, Turku, Finland) and radioactivity determined in a Wallac model 1410 liquid scintillation counter (Wallac, Turku, Finland). […]
The tubes were mixed and incubations at 22°C were terminated at various time points (30 s – 30 min) as described above. Dissociation of [^3H]muscimol from recombinant receptors in HEK cell membranes was also measured at 0–4°C (on ice) to evaluate how fast [^3H]muscimol dissociates from receptors while washing the filter with ice‐cold assay buffer during filtration. […]

[2] = biological target: T1, α6β2δ recombinant GABAA receptor (Rattus norvegicus, UniProt P30191+P63138); experiment: [^3H]muscimol binding kinetics, recombinant α6β2δ in HEK293 membranes
T1 construct: expressed in transfected cells; host or cells: HEK293 (ATCC CRL-1573), pRK5 plasmids, membranes
Description: (§2) Human embryonic kidney (HEK) 293 cells (ATCC Cat# CRL‐1573; RRID: CVCL_0045; a commonly misidentified cell line by ICLAC; last authenticated by STR DNA profiling in December 2018) were transfected with rat cDNAs (α1, L08490; α6, L08495; β2, X15467; β3, X15468; γ2S, L08497; δ, L08496) in pRK5 plasmids under the control of the cytomegalovirus promoter (Uusi‐Oukari et al. 2000), using the calcium phosphate precipitation method essentially as described (Lüddens and Korpi 1997). The plasmids were used in 1 : 1 and 1 : 1 : 1 ratios for transfections containing 2 [(α1 or α6) + (β2 or β3)] or 3 [(α1 or α6) + (β2 or β3) + (γ2S or δ)] different subunits, respectively (5 μg of each plasmid DNA for a 10 cm plate). Mock transfection was done using 5 μg pRK5 plasmid backbone. The cells were harvested 48 h after transfection. Culture medium was removed and the cells were detached from the plates by pipetting in ice‐cold assay buffer containing 2 mM EDTA. The cells were homogenized (Ultra Turrax, 20 s at 9500 rpm), the homogenates centrifuged at 20 000 g for 10 min at +4°C, and washed once with the same buffer. The homogenates were finally suspended in assay buffer (1 mL/plate) and either used directly to binding assays or stored frozen at −70°C.
(§3) The binding of [^3H]muscimol (5 nM) was measured in assay buffer at 22°C in a total volume of 300 μL. Triplicate technical replicates of mouse forebrain (190–215 μg protein), cerebellar (180–210 μg protein) or HEK cell (92–132 μg protein) membranes for each time point were incubated with shaking for various times (15 s–15 min) to measure association of the binding. […] The incubation was terminated by filtration of the samples with a Brandel Cell Harvester (model M‐24, Gaithersburg, MD, USA) onto Whatman GF/B filters (Whatman International Ltd., Maidstone, UK). The samples were rinsed twice with 4–5 mL of ice‐cold assay buffer. Filtration and rinsing steps took a total time of ~15 s. Air‐dried filters were immersed in 3 mL of Optiphase HiSafe 3 scintillation fluid (Wallac, Turku, Finland) and radioactivity determined in a Wallac model 1410 liquid scintillation counter (Wallac, Turku, Finland). The maximal binding disintegrations per minute (DPM) values (at 15 min in association) for recombinant studies with 5 nM [^3H]muscimol were between 700 and 2500 DPMs of specific binding (background subtracted). In native membranes, the maximal DPM values were between 2500 and 3000 for WTs and 1300–1500 for δKOs.
(§4) The tubes were mixed and incubations at 22°C were terminated at various time points (30 s – 30 min) as described above. Dissociation of [^3H]muscimol from recombinant receptors in HEK cell membranes was also measured at 0–4°C (on ice) to evaluate how fast [^3H]muscimol dissociates from receptors while washing the filter with ice‐cold assay buffer during filtration.

[3] = biological target: T2, α1β2γ2 recombinant GABAA receptor (Rattus norvegicus, UniProt P62813+P63138); experiment: [^3H]muscimol binding kinetics, recombinant α1β2γ2 in HEK293 membranes
T2 construct: expressed in transfected cells; host or cells: HEK293 (ATCC CRL-1573), pRK5 plasmids, membranes
Description: as §2
as §3, with “Finland).” for “Finland). The maximal binding disintegrations per minute (DPM) values (at 15 min in association) for recombinant studies with 5 nM [^3H]muscimol were between 700 and 2500 DPMs of specific binding (background subtracted). In native membranes, the maximal DPM values were between 2500 and 3000 for WTs and 1300–1500 for δKOs.”
as §4

[4] = biological target: T3, α1β2 recombinant GABAA receptor (Rattus norvegicus, UniProt P62813+P63138); experiment: [^3H]muscimol binding kinetics, recombinant α1β2 in HEK293 membranes; details: room temperature (22°C)
T3 construct: expressed in transfected cells; host or cells: HEK293 (ATCC CRL-1573), pRK5 plasmids, membranes
Description: Human embryonic kidney (HEK) 293 cells (ATCC Cat# CRL‐1573; RRID: CVCL_0045; a commonly misidentified cell line by ICLAC; last authenticated by STR DNA profiling in December 2018) were transfected with rat cDNAs (α1, L08490; α6, L08495; β2, X15467; β3, X15468; γ2S, L08497; δ, L08496) in pRK5 plasmids under the control of the cytomegalovirus promoter (Uusi‐Oukari et al. 2000), using the calcium phosphate precipitation method essentially as described (Lüddens and Korpi 1997). The plasmids were used in 1 : 1 and 1 : 1 : 1 ratios for transfections containing 2 [(α1 or α6) + (β2 or β3)] or 3 [(α1 or α6) + (β2 or β3) + (γ2S or δ)] different subunits, respectively (5 μg of each plasmid DNA for a 10 cm plate). […]
The binding of [^3H]muscimol (5 nM) was measured in assay buffer at 22°C in a total volume of 300 μL. […] Air‐dried filters were immersed in 3 mL of Optiphase HiSafe 3 scintillation fluid (Wallac, Turku, Finland) and radioactivity determined in a Wallac model 1410 liquid scintillation counter (Wallac, Turku, Finland).
as §4

[5] = biological target: T4, α6β2γ2 recombinant GABAA receptor (Rattus norvegicus, UniProt P30191+P63138); experiment: [^3H]muscimol binding kinetics, recombinant α6β2γ2 in HEK293 membranes
T4 construct: expressed in transfected cells; host or cells: HEK293 (ATCC CRL-1573), pRK5 plasmids, membranes
Description: as §2
as §3, with “In native membranes, the maximal DPM values were between 2500 and 3000 for WTs and 1300–1500 for δKOs.” left out
as §4

[6] = biological target: forebrain membranes of δKO mice; experiment: Saturation analysis of [^3H]muscimol binding, δKO forebrain membranes; design: species or system mouse; details: 0°C
Procedure: as §1
Saturation analysis of [^3H]muscimol to WT and δKO mouse forebrain and cerebellar membranes was performed essentially as described by Uusi‐Oukari and Korpi (1989). […] The incubations were terminated as described above.

[7] = cerebellum WT‐δKO (native δ‐GABAARs, by subtraction)

T1 sequence (P30191 20-453): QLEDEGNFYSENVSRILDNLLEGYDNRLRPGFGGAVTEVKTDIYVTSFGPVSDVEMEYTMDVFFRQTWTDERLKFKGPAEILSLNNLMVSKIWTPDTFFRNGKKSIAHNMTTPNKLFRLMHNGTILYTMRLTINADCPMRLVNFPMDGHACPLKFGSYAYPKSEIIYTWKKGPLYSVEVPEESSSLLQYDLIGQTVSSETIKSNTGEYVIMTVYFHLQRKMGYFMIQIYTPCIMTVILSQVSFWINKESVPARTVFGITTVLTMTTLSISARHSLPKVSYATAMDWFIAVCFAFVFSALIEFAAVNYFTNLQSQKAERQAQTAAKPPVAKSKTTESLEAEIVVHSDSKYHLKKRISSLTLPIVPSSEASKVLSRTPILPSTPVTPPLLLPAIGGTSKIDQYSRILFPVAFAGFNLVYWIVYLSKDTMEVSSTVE
T1 sequence (P63138 26-474): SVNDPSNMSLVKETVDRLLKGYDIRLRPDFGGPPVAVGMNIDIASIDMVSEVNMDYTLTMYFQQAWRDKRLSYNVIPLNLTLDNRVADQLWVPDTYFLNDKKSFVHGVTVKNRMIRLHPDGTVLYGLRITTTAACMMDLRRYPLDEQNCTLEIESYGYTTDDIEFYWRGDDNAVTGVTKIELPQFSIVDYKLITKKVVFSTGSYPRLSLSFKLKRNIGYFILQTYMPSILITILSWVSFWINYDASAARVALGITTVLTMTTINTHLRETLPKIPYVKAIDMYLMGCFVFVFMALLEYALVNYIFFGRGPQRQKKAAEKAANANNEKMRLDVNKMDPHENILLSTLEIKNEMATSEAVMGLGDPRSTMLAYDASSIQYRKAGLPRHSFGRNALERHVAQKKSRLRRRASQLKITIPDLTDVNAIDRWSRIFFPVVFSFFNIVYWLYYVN
T1 sequence (P18506 25-449 partner): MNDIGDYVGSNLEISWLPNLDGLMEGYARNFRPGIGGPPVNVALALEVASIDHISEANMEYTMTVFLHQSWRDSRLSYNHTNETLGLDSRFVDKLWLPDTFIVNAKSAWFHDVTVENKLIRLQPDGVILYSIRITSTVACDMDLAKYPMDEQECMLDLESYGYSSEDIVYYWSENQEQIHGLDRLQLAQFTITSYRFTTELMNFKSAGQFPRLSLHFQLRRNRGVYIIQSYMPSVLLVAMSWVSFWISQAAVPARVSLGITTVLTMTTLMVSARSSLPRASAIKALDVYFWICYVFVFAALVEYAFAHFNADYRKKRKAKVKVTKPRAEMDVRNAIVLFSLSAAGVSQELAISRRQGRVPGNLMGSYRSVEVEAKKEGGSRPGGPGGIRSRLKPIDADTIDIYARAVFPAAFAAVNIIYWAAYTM
T4 sequence (P30191 20-453): as the sequence (P30191 20-453) above
T4 sequence (P63138 26-474): as the sequence (P63138 26-474) above
T4 sequence (P18508 39-466 partner): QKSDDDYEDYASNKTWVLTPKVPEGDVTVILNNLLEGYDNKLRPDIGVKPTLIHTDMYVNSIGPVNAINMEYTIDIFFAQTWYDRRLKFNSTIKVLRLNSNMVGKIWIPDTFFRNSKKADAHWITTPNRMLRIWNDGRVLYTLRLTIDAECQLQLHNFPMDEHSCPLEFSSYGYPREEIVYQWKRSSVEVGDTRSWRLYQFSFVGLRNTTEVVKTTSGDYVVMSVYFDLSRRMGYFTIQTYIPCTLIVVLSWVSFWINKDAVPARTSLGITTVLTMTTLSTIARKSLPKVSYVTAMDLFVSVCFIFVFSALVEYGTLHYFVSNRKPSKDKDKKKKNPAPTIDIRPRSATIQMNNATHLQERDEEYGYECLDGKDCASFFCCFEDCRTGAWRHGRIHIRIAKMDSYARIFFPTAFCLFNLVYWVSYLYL
Chain of native δ‐GABAARs in the cerebellum (WT‐δKO, α6βδ) (P16305 20-453): as the sequence (P30191 20-453) above, with H121Q, S163T, K325T, T333A, T334S, E338Q, V371A, P379K, T384S, I392T counted along it
Chain of native δ‐GABAARs in the cerebellum (WT‐δKO, α6βδ) (P63137 26-512): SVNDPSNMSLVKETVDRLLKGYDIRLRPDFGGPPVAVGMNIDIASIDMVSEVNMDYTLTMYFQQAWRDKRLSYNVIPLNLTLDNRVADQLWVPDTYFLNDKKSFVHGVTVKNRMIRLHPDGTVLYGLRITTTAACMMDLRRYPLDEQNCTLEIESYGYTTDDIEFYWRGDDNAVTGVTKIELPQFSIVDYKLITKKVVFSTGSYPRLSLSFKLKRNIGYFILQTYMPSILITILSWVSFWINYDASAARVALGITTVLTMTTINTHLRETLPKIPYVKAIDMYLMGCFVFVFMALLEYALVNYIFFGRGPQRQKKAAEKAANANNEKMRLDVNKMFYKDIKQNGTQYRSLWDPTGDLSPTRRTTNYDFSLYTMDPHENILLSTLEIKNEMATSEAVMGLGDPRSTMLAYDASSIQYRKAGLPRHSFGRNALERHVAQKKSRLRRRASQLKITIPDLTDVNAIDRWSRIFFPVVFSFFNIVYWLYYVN
Chain of native δ‐GABAARs in the cerebellum (WT‐δKO, α6βδ) (P22933 25-449 partner): as the sequence (P18506 25-449 partner) above, with P38A, M149L counted along it
T2 sequence (P62813 28-455): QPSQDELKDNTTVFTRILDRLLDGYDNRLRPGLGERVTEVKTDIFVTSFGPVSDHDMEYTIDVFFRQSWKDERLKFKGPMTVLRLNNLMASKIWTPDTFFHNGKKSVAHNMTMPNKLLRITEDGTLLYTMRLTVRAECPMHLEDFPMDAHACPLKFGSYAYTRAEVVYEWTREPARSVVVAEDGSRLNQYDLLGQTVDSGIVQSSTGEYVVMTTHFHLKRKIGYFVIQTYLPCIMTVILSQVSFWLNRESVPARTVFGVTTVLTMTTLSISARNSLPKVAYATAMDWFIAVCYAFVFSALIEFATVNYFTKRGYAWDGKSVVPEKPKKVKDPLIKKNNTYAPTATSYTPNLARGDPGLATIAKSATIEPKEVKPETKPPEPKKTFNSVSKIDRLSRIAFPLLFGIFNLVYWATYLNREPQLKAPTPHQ
T2 sequence (P63138 26-474): as the sequence (P63138 26-474) above
T2 sequence (P18508 39-466 partner): as the sequence (P18508 39-466 partner) above
T3 sequence (P62813 28-455): as the sequence (P62813 28-455) above
T3 sequence (P63138 26-474): as the sequence (P63138 26-474) above

**Q.** NCc1cc(=O)[nH]o1 [[^3H]muscimol] [[Methylene‐^3H]muscimol] was tested. Which k off [1, 7] did it give?
**A.** 0.002 ± 0.0005 s⁻¹

**Q.** What about the k on [1, 7] of the same molecule?
**A.** 1.2 ± 0.2 × 10^8 M^−1 × min^−1

**Q.** And the Kd ([1]; cerebellum WT‐δKO (native δ‐GABAARs, α6βδ), K D = koff/kon)?
**A.** ~1 nM and 1 nM

**Q.** What about the Kd ([2]; α6β2δ in HEK293 membranes, 22°C, K D = koff/kon) of the same molecule?
**A.** 1.3 nM

**Q.** What about the k off ([2]; α6β2δ in HEK293 membranes, +4 °C) of the same molecule?
**A.** 0.015 ± 0.003 ^*** min^−1

**Q.** And the k off ([2]; α6β2δ in HEK293 membranes, room temperature (22°C))?
**A.** 0.13 ± 0.03 ^### min^−1

**Q.** What about the k on ([2]; α6β2δ in HEK293 membranes, room temperature (22°C), 5 nM [^3H]muscimol) of the same molecule?
**A.** 1.0 ± 0.1 × 10^8, ^### M^−1 × min^−1

**Q.** And the “association rate constant kon lower when compared to γ2‐GABAARs” value ([2]; α6β2δ vs α1β2γ2 and α6β2γ2, 22°C)?
**A.** 6.3–11 fold

**Q.** And the “[^3H]muscimol still remaining bound” value ([2]; α6β2δ, 0°C, 30 min after start of the dissociation)?
**A.** 70%

**Q.** What about the “dissociation of [^3H]muscimol binding during the first 15 s after pre‐incubation” value ([3]; α1β2γ2, 0°C, approximated) of the same molecule?
**A.** about 10%

**Q.** And the Kd ([3]; α1β2γ2 in HEK293 membranes, 22°C, K D = koff/kon)?
**A.** 1.6 nM

**Q.** What about the k off ([3]; α1β2γ2 in HEK293 membranes, +4 °C) of the same molecule?
**A.** 0.00587 ± 0.00015 s⁻¹

**Q.** What about the k off ([3]; α1β2γ2 in HEK293 membranes, room temperature (22°C)) of the same molecule?
**A.** 0.0297 ± 0.003 s⁻¹

**Q.** What about the k on ([3]; α1β2γ2 in HEK293 membranes, room temperature (22°C), 5 nM [^3H]muscimol) of the same molecule?
**A.** 11 ± 0.6 × 10^8 M^−1 × min^−1

**Q.** What about the k off [4] of the same molecule?
**A.** 0.49 ± 0.07 ^### min^−1

**Q.** And the Kd ([5]; 22°C, K D = koff/kon)?
**A.** 1.6 nM

**Q.** What about the k off ([5]; +4 °C) of the same molecule?
**A.** 0.086 ± 0.010 ^, ^** min^−1

**Q.** What about the k off ([5]; room temperature (22°C)) of the same molecule?
**A.** 0.98 ± 0.02 ^### ^, ^††† min^−1

**Q.** And the k on ([5]; room temperature (22°C), 5 nM [^3H]muscimol)?
**A.** 6.3 ± 0.5 × 10^8, ^### ^, ^††† M^−1 × min^−1

**Q.** And the “Apparent pKD” value [6]?
**A.** 7.68 ± 0.05
